ChEMBL document CHEMBL3526083, “Prediction of relative in vivo metabolite exposure from in vitro data using two model drugs: dextromethorphan and omeprazole” (Drug Metab Dispos, 2012)

Tests used:
Homo sapiens = species on record: Homo sapiens; assay: Ratio of AUC for compound to omeprazolein human; assay type: ADME, organism-based; details: in vivo
Liver microsome [1] = assay: Drug metabolism in human liver metabolism assessed as 5OH-omeprazole formation measured per mg of microsomal protein; assay type: ADME; details: microsomes
Liver microsome [2] = assay: Drug metabolism in human liver metabolism assessed as omeprazole sulfone depletion measured as intrinsic clearance per mg of microsomal protein; assay type: ADME; details: microsomes
Hepatocyte [3] = assay: Drug metabolism in human hepatocytes assessed as 5OH-omeprazole depletion measured per 10^6 cells as intrinsic unbound clearance; assay type: ADME, cell-based
Liver microsome [4] = assay: Drug metabolism in human liver metabolism assessed as omeprazole sulfone formation measured as intrinsic unbound clearance per mg of microsomal protein; assay type: ADME; details: microsomes
Liver microsome [5] = assay: Drug metabolism in human liver metabolism assessed as omeprazole sulfone formation measured as plasma fraction unbound; assay type: ADME, cell-free
Liver microsome [6] = assay: Drug metabolism in human liver metabolism assessed as omeprazole sulfone formation; assay type: ADME, tissue-based
Liver microsome [7] = assay: Drug metabolism in human liver metabolism assessed as 5OH-omeprazole formation; assay type: ADME, tissue-based
Hepatocyte [8] = assay: Drug metabolism in human hepatocytes assessed as 5OH-omeprazole formation measured per 10^6 cells as intrinsic unbound clearance; assay type: ADME, cell-based
Liver microsome [9] = assay: Drug metabolism in human liver metabolism assessed as omeprazole sulfone formation measured as microsomal fraction unbound per mg of microsomal protein; assay type: ADME; details: microsomes
Liver microsome [10] = assay: Drug metabolism in human liver metabolism assessed as 5OH-omeprazole formation measured as microsomal fraction unbound; assay type: ADME; details: microsomes
Liver microsome [11] = assay: Drug metabolism in human liver metabolism assessed as 5OH-omeprazole formation measured as intrinsic unbound clearance per mg of microsomal protein; assay type: ADME; details: microsomes
Liver microsome [12] = assay: Drug metabolism in human liver metabolism assessed as omeprazole sulfone formation measured per mg of microsomal protein; assay type: ADME; details: microsomes
Liver microsome [13] = assay: Drug metabolism in human liver metabolism assessed as 5OH-omeprazole formation measured as plasma fraction unbound; assay type: ADME, cell-free
Liver microsome [14] = assay: Drug metabolism in human liver metabolism assessed as omeprazole sulfone depletion measured as intrinsic unbound clearance per mg of microsomal protein; assay type: ADME; details: microsomes
Liver microsome [15] = assay: Drug metabolism in human liver metabolism assessed as omeprazole sulfone depletion measured as plasma fraction unbound; assay type: ADME, cell-free
Hepatocyte [16] = assay: Drug metabolism in human hepatocytes assessed as omeprazole sulfone depletion measured per 10^6 cells as intrinsic unbound clearance; assay type: ADME, cell-based
Liver microsome [17] = assay: Drug metabolism in human liver metabolism assessed as omeprazole sulfone formation measured as intrinsic clearance per mg of microsomal protein; assay type: ADME; details: microsomes
Liver microsome [18] = assay: Drug metabolism in human liver metabolism assessed as 5OH-omeprazole formation measured as intrinsic clearance per mg of microsomal protein; assay type: ADME; details: microsomes
Hepatocyte [19] = assay: Drug metabolism in human hepatocytes assessed as omeprazole sulfone formation measured per 10^6 cells as intrinsic unbound clearance; assay type: ADME, cell-based
Liver microsome [20] = assay: Drug metabolism in human liver metabolism assessed as omeprazole sulfone depletion measured as microsomal fraction unbound; assay type: ADME; details: microsomes
Liver microsome [21] = assay: Drug metabolism in human liver microsomes assessed as dextrorphan formation; assay type: ADME
Liver microsome [22] = assay: Drug metabolism in human liver microsomes assessed as dextrorphan formation measured as intrinsic unbound clearance; assay type: ADME
Liver microsome [23] = assay: Drug metabolism in human liver microsomes assessed as dextrorphan formation measured per mg of microsomal protein; assay type: ADME
Liver microsome [24] = assay: Drug metabolism in human liver microsomes assessed as dextrorphan formation measured as microsomal fraction unbound; assay type: ADME
Liver microsome [25] = assay: Drug metabolism in human liver microsomes assessed as dextrorphan formation measured as intrinsic clearance; assay type: ADME
Liver microsome [26] = assay: Drug metabolism in human liver microsomes assessed as dextrorphan formation measured as plasma fraction unbound; assay type: ADME, cell-free

In the case of COc1ccc2nc(S(=O)(=O)Cc3ncc(C)c(OC)c3C)[nH]c2c1 [OMEPRAZOLE SULFONE], the “Ratio AUC” value (Homo sapiens) is reported as 0.85.
COc1ccc2[nH]c([S+]([O-])Cc3ncc(C)c(OC)c3C)nc2c1 (stereo not drawn) [OMEPRAZOLE] showed a Vmax (Liver microsome [1]) of 0.11 nmol/min/mg, a CLint (Liver microsome [2]) of 32 µL/min/mg and a CL free (Hepatocyte [3]) of 100 uL/hr/10^6cells. It also gave a CL free (Liver microsome [4]) of 7.7 µL/min/mg, a Fu (Liver microsome [5]) of 0.061 and a Km (Liver microsome [6]) of 11 µM. For the same molecule, the Km (Liver microsome [7]) was 16 µM, the CL free (Hepatocyte [8]) was 55 uL/hr/10^6cells and the Fu (Liver microsome [9]) was 0.86. It also gave a Fu (Liver microsome [10]) of 0.86, a CL free (Liver microsome [11]) of 8.2 µL/min/mg and a Vmax (Liver microsome [12]) of 0.074 nmol/min/mg. The Fu (Liver microsome [13]) was 0.061, the CL free (Liver microsome [14]) was 35 µL/min/mg and the Fu (Liver microsome [15]) was 0.0048. The CL free (Hepatocyte [16]) was 48 uL/hr/10^6cells, the CLint (Liver microsome [17]) was 6.6 µL/min/mg and the CLint (Liver microsome [18]) was 7.1 µL/min/mg. It also gave a CL free (Hepatocyte [19]) of 3.6 uL/hr/10^6cells and a Fu (Liver microsome [20]) of 0.92.
In the case of COc1ccc2[nH]c([S+]([O-])Cc3ncc(CO)c(OC)c3C)nc2c1 (stereo not drawn), the “Ratio AUC” value (Homo sapiens) is reported as 0.48.
COc1ccc2c(c1)[C@]13CCCC[C@@H]1[C@H](C2)N(C)CC3 [DEXTROMETHORPHAN] was tested, and the Km (Liver microsome [21]) was 5 µM, the CL free (Liver microsome [22]) was 14 µL/min/mg and the Vmax (Liver microsome [23]) was 0.066 nmol/min. The Fu (Liver microsome [24]) was 0.93, the CLH (Liver microsome [25]) was 13 µL/min/mg and the Fu (Liver microsome [26]) was 0.72.
